# From paper PMC4011845, “Stereoselectivity of Isoflurane in Adhesion Molecule Leukocyte Function-Associated Antigen-1” (PLoS ONE, 2014)
# Legend:
# [1] = target: T1, leukocyte function-associated antigen-1 (LFA-1) αL I domain (Homo sapiens, UniProt P20701); test: 1-aminoanthracene fluorescence displacement; supported by cell-based ICAM-1 binding inhibition
# T1 construct: gene ITGAL; αL I domain wild type, residues 128-307 of the integrin αL subunit
# T1 sequence (P20701 153-332): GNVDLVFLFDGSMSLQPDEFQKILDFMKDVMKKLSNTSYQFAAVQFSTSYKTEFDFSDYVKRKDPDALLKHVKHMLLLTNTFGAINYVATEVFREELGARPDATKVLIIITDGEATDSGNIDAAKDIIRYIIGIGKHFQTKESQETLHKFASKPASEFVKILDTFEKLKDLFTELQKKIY
# [2] = target: T2, leukocyte function-associated antigen-1 (LFA-1) (Homo sapiens, UniProt P20701); test: cell-free LFA-1:ICAM-1 binding assay ([…] 1-AMA); fluorescence probe on the αL I domain; type: biochemical
# T2 construct: gene ITGAL; αL I domain residues 128-307 (fluorescence); with integrin β2 subunit (LFA-1 heterodimer)
# T2 sequence (P20701 26-1090 limits assumed): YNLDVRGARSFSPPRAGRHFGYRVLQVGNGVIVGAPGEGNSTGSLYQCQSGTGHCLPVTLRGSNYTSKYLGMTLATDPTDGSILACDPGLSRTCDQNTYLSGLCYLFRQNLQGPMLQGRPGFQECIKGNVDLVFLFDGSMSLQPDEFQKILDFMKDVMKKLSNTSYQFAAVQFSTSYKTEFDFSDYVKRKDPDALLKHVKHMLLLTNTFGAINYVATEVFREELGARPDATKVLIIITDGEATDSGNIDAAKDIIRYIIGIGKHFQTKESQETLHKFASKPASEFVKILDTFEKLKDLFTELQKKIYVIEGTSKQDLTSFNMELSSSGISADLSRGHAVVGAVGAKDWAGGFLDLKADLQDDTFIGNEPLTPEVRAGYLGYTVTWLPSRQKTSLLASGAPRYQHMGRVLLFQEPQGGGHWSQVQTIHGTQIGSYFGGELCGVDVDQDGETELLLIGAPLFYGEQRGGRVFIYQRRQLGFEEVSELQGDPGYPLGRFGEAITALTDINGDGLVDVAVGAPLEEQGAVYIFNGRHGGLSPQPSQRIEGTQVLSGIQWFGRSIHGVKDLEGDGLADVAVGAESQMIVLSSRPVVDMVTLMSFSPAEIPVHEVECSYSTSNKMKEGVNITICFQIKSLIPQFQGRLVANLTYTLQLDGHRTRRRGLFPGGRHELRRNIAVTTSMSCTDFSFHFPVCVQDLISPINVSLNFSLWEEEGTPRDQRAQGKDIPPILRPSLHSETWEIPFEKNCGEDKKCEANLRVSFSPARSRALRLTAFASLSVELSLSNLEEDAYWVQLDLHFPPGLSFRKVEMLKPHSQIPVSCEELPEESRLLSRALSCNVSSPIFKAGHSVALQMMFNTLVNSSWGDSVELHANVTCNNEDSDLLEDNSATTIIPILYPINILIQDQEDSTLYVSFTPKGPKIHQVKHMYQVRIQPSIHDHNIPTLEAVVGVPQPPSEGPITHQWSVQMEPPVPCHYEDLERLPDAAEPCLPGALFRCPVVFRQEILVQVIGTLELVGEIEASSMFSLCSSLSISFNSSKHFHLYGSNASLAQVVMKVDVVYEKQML
# T2 sequence (P05107 23-700 partner limits assumed): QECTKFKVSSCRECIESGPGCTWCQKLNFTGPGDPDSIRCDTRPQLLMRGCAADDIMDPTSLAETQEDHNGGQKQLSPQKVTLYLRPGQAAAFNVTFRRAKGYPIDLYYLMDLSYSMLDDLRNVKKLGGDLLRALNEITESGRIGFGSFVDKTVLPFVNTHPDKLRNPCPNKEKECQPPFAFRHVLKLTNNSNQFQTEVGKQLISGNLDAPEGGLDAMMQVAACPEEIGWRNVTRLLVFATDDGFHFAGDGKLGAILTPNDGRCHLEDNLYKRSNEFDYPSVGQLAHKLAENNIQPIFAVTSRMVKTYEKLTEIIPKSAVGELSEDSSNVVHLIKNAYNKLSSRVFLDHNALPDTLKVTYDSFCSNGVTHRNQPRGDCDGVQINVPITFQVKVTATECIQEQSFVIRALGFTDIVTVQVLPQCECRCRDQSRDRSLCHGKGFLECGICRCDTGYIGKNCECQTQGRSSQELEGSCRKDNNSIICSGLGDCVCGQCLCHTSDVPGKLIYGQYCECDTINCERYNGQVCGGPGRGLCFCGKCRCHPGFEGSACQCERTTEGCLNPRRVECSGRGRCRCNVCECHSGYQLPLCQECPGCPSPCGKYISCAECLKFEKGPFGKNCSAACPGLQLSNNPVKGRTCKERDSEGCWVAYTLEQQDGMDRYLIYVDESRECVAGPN
Structure (SMILES),Kd [1] [µM],cell-free LFA-1:ICAM-1 binding assay (10-25 μM 1-AMA); fluorescence probe on the [2]
FC(F)OC(Cl)C(F)(F)F (centres unmarked) [S-isoflurane],375,–
"Nc1cccc2cc3ccccc3cc12 [1-AMA, 1-aminoanthracene]",–,"As shown in Figure 2A , 1-AMA inhibited the binding of LFA-1 to its ligand ICAM-1."
